Data reported in article PMC7717699, “Tuning the activity of iminosugars: novel N-alkylated deoxynojirimycin derivatives as strong BuChE inhibitors” (Journal of Enzyme Inhibition and Medicinal Chemistry, 2020).
Like-named read-outs stand apart in the source and are kept apart here.

How the values were obtained:
β-glucosidase (almonds) = assay: β-Glucosidase inhibition (p-nitrophenyl glycoside substrate); format: biochemical; conditions: for IC50: almond enzyme, pH 6.8, 25 °C; for Mode of inhibition β-Glucosidase: Cornish–Bowden method; for Ki: binding to free enzyme, read-out: Kia β-Glucosidase
Protocol: (§1) For both families of enzymes used herein (glycosidases and cholinesterases), stock solutions of the inhibitors were prepared in DMSO; DMSO content was kept at 5% (V/V) for glycosidases and 1.25% (V/V) for cholinesterases. Enzymes were properly dissolved in water in a concentration in which the rate of the reaction when using [S] = 4 × KM is in the range 0.12–0.15 Abs/min. In both kinds of enzymes, an initial screening at 100 µM inhibitor concentration was performed, using the following substrate concentrations: [S] = 0.25 mM for α-glucosidase (Saccharomyces cerevisiae), 4.0 mM for β-glucosidase (almonds), 0.60 mM for α-galactosidase (green coffee beans), 0.51 mM for β-galactosidase (Escherichia coli), 1.5 mM for β-galactosidase (Aspergillus Oryzae), 0.12 mM for AChE (Electrophorus electricus), 0.11 mM for BuChE (equine serum). […] Each assay was run in duplicate.
(§2) Glycosidase assays were accomplished using the methodology reported by Bols and co-workers[30]. Each set of experiments is prepared in PS cuvettes using 0.1 M phosphate buffer (pH 6.8) and the corresponding o- or p-nitrophenyl glycopyranosides as substrates. Reactions were monitored at 25 °C by following the formation of the corresponding nitrophenolates at 400 nm (glucosidases and α-galactosidase) or 420 nm (β-galactosidases) over a time of 125 s.
(§3) For strong inhibitors, the mode of inhibition was determined using the Cornish–Bowden method, which involves the use of two different plots: 1/v vs. [I] (Dixon plot) and [S]/v vs. [I]. For the calculation of kinetic parameters (KM, Vmax) a nonlinear regression analysis (least squares fit, GraphPad Prism 8.01) was used. Data are expressed as the mean ± SD.
(§4) Assessment of the inhibitory capacity against glycosidases was accomplished using the methodology reported by Bols and co-workers[30]. p-Nitrophenyl glycosides (o- for β-galactosidases) were used as model substrates, and the release of the corresponding p-nitrophenolates at pH 6.8 was monitored spectrophotometrically (λmax = 400 or 420 nm for p- or o-nitrophenolates, respectively).

[1] = target: AChE (Electrophorus electricus) (Electrophorus electricus, UniProt O42275); assay: AChE inhibition, Ellman's assay; format: biochemical; conditions: for Mode of inhibition AChE: Cornish–Bowden method
Protocol: as §1
(§5) For cholinesterases, minor modifications on Ellman’s assay[31] were performed. The activity was measured in PS cuvettes containing […] (pH 8.0), 0.88 mM DTNB, and substrate (acetyl- and butyryl-thiocholine iodides for AChE and BuChE, respectively), The formation of the chromophore was monitored at 405 nm over a time of 125 s.
as §3
(§6) Derivatives 11 and 12 were tested also against AChE (Electrophorus electricus) and BuChE (equine serum), as recognised models for human cholinesterases due to their close structural resemblance. For that purpose, Ellman’s colorimetric assay was used; this is an indirect test in which acetyl and butyryl thiocholine iodides are used as model substrates, which upon interaction with the enzyme release thiocholine, which in turn reacts with the chromogen reagent 5,5′-dithiobis(2-nitrobenzoic acid (DTNB) to give 2-nitro-5-mercaptobenzoate (at pH 8.0). The monitoring of the latter at 405 nm furnishes the kinetic parameters.

BuChE (equine serum) = target: T1, BuChE (equine serum) (Equus caballus, UniProt P81908); assay: BuChE inhibition, Ellman's assay; format: biochemical; conditions: for Mode of inhibition BuChE: Cornish–Bowden method
T1 construct: 0.11 mM for BuChE (equine serum); from tissue; host or cells: equine serum
Protocol: as §1, §5, §3, §6

[2] = target: T2, β-galactosidase (Escherichia coli) (Escherichia coli, UniProt P00722); assay: β-Galactosidase (E. coli) inhibition; format: biochemical
T2 construct: purchased
Protocol: as §1, §2, §4

[3] = target: T3, β-galactosidase (Aspergillus Oryzae) (Aspergillus oryzae, UniProt Q2UCU3); assay: β-Galactosidase (A. oryzae) inhibition; format: biochemical
T3 construct: purchased
T3 sequence (Q2UCU3 19-1005): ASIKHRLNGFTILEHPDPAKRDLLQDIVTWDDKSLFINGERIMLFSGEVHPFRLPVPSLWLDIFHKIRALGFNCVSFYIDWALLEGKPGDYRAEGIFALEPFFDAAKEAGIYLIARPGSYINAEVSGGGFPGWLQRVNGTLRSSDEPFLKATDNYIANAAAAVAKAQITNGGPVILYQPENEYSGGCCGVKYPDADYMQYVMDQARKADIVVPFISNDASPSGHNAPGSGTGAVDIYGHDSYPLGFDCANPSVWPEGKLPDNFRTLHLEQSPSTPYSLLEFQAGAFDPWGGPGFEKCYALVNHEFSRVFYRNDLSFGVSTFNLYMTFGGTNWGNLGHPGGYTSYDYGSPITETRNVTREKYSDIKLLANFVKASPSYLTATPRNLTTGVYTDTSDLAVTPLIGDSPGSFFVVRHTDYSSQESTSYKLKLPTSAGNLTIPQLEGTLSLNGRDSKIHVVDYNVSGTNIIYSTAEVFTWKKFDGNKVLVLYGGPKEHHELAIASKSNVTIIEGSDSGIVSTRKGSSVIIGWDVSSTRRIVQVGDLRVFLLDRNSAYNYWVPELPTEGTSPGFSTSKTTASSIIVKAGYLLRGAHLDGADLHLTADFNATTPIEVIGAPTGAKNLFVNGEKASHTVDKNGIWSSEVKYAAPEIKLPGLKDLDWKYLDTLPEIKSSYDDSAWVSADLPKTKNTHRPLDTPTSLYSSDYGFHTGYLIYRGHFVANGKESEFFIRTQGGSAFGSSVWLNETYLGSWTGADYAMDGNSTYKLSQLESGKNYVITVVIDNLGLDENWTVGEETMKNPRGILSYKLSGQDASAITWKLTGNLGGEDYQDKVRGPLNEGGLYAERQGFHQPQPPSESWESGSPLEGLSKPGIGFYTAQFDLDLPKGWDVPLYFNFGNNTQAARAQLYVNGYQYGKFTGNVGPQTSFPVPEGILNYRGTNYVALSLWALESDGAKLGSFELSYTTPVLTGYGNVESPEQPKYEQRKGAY
Protocol: as §1, §2, §4

[4] = target: T4, α-glucosidase (Saccharomyces cerevisiae) (Saccharomyces cerevisiae, UniProt P53341); assay: α-Glucosidase inhibition (p-nitrophenyl glycoside substrate); format: biochemical
T4 construct: purchased
Protocol: as §1, §2
(Dixon plot) and [S]/v vs. [I]. For the calculation of kinetic parameters (KM, Vmax) a nonlinear regression analysis (least squares fit, GraphPad Prism 8.01) was used. Data are expressed as the mean ± SD.
as §4

[5] = target: T5, α-galactosidase (green coffee beans) (Coffea arabica, UniProt Q42656); assay: α-Galactosidase inhibition; format: biochemical
T5 construct: purchased; host or cells: green coffee beans
Protocol: as §1, with “Enzymes” for “For both families of enzymes used herein (glycosidases and cholinesterases), stock solutions of the inhibitors were prepared in DMSO; DMSO content was kept at 5% (V/V) for glycosidases and 1.25% (V/V) for cholinesterases. Enzymes”
Glycosidase assays were accomplished using the methodology reported by Bols and co-workers[30]. Each set of experiments is prepared in PS cuvettes using 0.1 M phosphate buffer (pH 6.8) and the corresponding o- or p-nitrophenyl glycopyranosides as substrates.
as §4

[6] = system: BJ-hTERT human fibroblasts; assay: Antiproliferative SRB assay, BJ-hTERT; format: cell-based; conditions: Fibroblast, 48 h, non-tumour fibroblasts
[7] = cited from earlier work
[8] = Electrophorus electricus, pH 8.0, read-out: IC50 AChE
[9] = equine serum, pH 8.0, read-out: IC50 BuChE
[10] = binding to enzyme-substrate complex, read-out: Kib AChE
[11] = binding to free enzyme, read-out: Kia AChE
[12] = binding to enzyme-substrate complex, read-out: Kib BuChE
[13] = binding to free enzyme, read-out: Kia BuChE

T5 sequence (Q42656 16-378): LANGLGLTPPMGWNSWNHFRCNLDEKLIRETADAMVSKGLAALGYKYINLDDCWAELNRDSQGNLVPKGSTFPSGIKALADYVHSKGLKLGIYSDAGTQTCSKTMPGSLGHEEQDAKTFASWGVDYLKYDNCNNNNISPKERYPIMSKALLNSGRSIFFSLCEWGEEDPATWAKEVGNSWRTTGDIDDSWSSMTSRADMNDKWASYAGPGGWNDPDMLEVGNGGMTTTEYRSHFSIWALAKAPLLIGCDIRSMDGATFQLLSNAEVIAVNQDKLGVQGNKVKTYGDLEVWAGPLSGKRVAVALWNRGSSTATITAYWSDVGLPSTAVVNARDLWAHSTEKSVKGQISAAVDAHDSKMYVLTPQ
T2 sequence (P00722 2-1024 limits assumed): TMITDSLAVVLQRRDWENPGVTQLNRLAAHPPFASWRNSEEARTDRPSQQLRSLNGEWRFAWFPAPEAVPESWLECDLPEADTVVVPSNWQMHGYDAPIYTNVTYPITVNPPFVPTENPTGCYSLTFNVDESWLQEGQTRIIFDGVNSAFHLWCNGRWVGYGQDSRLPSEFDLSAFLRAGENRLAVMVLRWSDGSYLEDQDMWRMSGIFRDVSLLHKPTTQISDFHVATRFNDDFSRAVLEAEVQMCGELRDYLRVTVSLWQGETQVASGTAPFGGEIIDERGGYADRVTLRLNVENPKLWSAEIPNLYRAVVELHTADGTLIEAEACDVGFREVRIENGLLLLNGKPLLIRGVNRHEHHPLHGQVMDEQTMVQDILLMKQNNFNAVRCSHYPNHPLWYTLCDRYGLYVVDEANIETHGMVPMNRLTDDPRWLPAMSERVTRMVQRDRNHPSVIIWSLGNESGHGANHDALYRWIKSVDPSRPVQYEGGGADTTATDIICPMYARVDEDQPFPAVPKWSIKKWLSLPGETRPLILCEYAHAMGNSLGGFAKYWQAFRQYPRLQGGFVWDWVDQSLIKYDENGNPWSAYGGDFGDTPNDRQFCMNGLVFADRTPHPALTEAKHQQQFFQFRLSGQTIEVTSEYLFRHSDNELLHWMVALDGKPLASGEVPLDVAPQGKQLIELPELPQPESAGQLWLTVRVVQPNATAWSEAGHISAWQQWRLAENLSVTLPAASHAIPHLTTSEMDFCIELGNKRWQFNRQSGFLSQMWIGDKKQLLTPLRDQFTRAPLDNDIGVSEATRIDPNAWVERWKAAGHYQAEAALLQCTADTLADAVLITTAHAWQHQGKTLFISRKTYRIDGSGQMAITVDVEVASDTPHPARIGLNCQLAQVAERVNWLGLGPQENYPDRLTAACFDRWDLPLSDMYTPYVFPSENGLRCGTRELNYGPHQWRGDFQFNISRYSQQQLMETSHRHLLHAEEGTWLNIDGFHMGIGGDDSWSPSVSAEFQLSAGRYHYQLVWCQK
T1 sequence (P81908 whole entry): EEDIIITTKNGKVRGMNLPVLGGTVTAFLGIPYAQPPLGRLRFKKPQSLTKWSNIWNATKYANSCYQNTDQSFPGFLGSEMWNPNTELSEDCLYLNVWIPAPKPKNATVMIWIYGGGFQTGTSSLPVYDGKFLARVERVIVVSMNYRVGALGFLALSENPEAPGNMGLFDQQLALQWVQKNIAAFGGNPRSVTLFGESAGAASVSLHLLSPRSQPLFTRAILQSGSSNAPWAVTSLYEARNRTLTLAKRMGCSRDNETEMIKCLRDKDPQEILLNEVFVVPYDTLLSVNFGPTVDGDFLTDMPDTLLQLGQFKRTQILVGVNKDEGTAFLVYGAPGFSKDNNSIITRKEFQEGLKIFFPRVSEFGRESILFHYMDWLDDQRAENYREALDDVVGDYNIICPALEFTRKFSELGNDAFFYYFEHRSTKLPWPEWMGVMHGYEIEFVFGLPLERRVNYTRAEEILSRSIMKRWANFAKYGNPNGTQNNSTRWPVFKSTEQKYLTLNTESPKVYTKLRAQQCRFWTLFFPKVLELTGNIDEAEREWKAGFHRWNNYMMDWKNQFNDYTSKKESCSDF
AChE (Electrophorus electricus), sequence (O42275 24-633): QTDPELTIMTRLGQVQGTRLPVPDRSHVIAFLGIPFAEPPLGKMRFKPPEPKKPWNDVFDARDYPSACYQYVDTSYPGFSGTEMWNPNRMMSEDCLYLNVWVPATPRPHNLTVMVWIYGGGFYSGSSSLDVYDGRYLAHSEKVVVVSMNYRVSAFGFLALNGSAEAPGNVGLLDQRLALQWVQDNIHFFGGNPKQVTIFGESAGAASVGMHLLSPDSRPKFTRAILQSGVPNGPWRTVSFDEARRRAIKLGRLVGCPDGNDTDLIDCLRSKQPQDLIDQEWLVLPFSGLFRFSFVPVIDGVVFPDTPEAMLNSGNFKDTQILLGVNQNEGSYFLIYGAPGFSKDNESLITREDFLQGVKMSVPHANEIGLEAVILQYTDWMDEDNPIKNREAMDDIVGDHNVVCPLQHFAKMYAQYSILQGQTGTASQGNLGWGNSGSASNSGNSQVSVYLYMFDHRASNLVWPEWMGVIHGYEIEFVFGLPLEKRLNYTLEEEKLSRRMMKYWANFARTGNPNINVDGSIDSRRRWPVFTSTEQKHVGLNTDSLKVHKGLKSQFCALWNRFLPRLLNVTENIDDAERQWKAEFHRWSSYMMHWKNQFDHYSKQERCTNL
T4 sequence (P53341 whole entry): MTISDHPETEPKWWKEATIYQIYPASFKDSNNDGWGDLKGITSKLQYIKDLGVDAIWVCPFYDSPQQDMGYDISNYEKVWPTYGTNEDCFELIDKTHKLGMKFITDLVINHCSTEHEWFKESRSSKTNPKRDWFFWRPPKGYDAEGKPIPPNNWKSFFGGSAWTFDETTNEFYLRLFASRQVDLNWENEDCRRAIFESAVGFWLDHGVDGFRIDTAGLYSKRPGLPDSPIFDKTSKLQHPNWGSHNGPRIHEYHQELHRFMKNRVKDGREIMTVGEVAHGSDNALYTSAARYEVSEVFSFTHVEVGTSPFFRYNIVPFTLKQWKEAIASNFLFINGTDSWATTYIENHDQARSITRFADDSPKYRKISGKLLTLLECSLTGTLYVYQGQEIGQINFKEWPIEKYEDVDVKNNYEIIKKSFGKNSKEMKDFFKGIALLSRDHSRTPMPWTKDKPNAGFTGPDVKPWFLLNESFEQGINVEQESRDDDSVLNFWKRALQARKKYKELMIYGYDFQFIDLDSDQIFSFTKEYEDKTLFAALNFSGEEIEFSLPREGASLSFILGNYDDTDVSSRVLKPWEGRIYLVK

Structure (SMILES) | IC50 (β-glucosidase (almonds)) [µM] | Mode of inhibition BuChE (BuChE (equine serum)) | Mode of inhibition β-Glucosidase (β-glucosidase (almonds)) | Ki (β-glucosidase (almonds)) [µM] | IC50 [1, 8] [µM] | IC50 (BuChE (equine serum); [9]) [µM] | IC50 [2] [µM] | IC50 [4] [µM] | IC50 [3] [µM] | IC50 [5] [µM] | other results
OC[C@H]1NC[C@H](O)[C@@H](O)[C@@H]1O [Compound 1-DNJ, 1-deoxynojirimycin, reference compound] | […] | Non-competitive |  |  |  |  |  |  |  |  | IC50 [1]: > 100 µM; IC50 (BuChE (equine serum)): 10 µM; Ki (BuChE (equine serum)): 16 ± 3 µM; IC50 ([2]; E. coli enzyme, read-out: IC50 β-Galactosidase (E. coli)): > 100 µM; IC50 ([3]; Asp. Oryzae enzyme, read-out: IC50 β-Galactosidase (Asp. Oryzae)): > 100 µM
OC[C@@H]1[C@@H](O)[C@H](O)[C@@H](O)CN1CCCCCCOCCc1ccccc1 [Compound 11a] | 4.6 |  | Competitive | 6.5 | > 100 | > 100 | > 100 | 126 | > 100 | > 100 | Ki [4]: 93 µM; Mode of inhibition α-Glucosidase ([4]; Cornish–Bowden method): Competitive
OC[C@@H]1[C@@H](O)[C@H](O)[C@@H](O)CN1CCCCCCOCCc1ccc(O)cc1 [Compound 11b] | 12 |  | Competitive | 17 | > 100 | > 100 | > 100 | > 100 | > 100 | > 100 | 
COc1ccc(CCOCCCCCCN2C[C@H](O)[C@@H](O)[C@H](O)[C@H]2CO)cc1 [Compound 11c] | 6 |  | Competitive | 4.5 | > 100 | > 100 | > 100 | > 100 | > 100 | > 100 | 
OC[C@@H]1[C@@H](O)[C@H](O)[C@@H](O)CN1CCCCCCOCCc1ccc(O)c(O)c1 [Compound 11d] | 15 |  | Competitive | 11 | > 100 | 76 | > 100 | > 100 | > 100 | > 100 | GI50 [6]: 39 ± 5 µM
COc1ccc(CCOCCCCCCN2C[C@H](O)[C@@H](O)[C@H](O)[C@H]2CO)cc1OC [Compound 11e] | 14 | mixed inhibition | Competitive | 15 | 5.8 | 1.9 | > 100 | > 100 | > 100 | > 100 | Mode of inhibition AChE [1]: mixed inhibitor; Ki [1, 10]: 5.2 µM; Ki [1, 11]: 9.3 µM; Ki (BuChE (equine serum); [12]): 4.5 µM; Ki (BuChE (equine serum); [13]): 1.4 µM
COc1cc(CCOCCCCCCN2C[C@H](O)[C@@H](O)[C@H](O)[C@H]2CO)ccc1O [Compound 11f] | 8.2 | Mixed | Competitive | 9.6 | 7.3 | 1.8 | > 100 | > 100 | > 100 | > 100 | Mode of inhibition AChE [1]: Non-competitive; Ki [1, 10]: 17 ± 5 µM; Ki [1, 11]: 17 ± 5 µM; Ki (BuChE (equine serum); [12]): 5 µM; Ki (BuChE (equine serum); [13]): 1.5 µM
OC[C@@H]1[C@@H](O)[C@H](O)[C@@H](O)CN1CCCCCCOCCc1ccc2c(c1)OCO2 [Compound 11g] | 8.4 | Non-competitive | Competitive | 9 | 48 | 7.3 | > 100 | > 100 | > 100 | > 100 | Mode of inhibition AChE [1]: Mixed; Ki [1, 10]: 43 µM; Ki [1, 11]: 56 µM; Ki (BuChE (equine serum); [12]): 9.2 ± 1.9 µM; Ki (BuChE (equine serum); [13]): 9.2 ± 1.9 µM
OC[C@@H]1[C@@H](O)[C@H](O)[C@@H](O)CN1CCCCCOCCc1ccccc1 [Compound 12a] | 28 |  | Competitive | 23 ± 4 | > 100 | > 100 | > 100 | > 100 | > 100 | > 100 | 
COc1ccc(CCOCCCCCN2C[C@H](O)[C@@H](O)[C@H](O)[C@H]2CO)cc1 [Compound 12c] | 25 |  | Competitive | 14 ± 6 | > 100 | > 100 | > 100 | > 100 | > 100 | > 100 | 
OC[C@@H]1[C@@H](O)[C@H](O)[C@@H](O)CN1CCCCCOCCc1ccc(O)c(O)c1 [Compound 12d] | > 50 |  |  |  | > 100 | > 100 |  | > 100 |  |  | 
CCCCN1C[C@H](O)[C@@H](O)[C@H](O)[C@H]1CO [N-butyl-DNJ, N-butyl-1-deoxynojirimycin] |  |  |  |  |  |  |  |  |  |  | pKa [7]: 7.1
CCCCCCCCCN1C[C@H](O)[C@@H](O)[C@H](O)[C@H]1CO [N-nonyl-DNJ] |  |  |  |  |  |  |  |  |  |  | pKa [7]: 6.7
